For ten compounds, TGI results are on record in PubChem BioAssay (NCI).

Molecules are shown by their SMILES.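 Five compound concentrations were applied to cells in 96-well plates for 48 hours; endpoints were derived by simple linear interpolation of the resulting dose-response curve. TGI marks complete inhibition of growth.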 Where only a bound is given, the exact number is not on record here.

Test systems include A549 NSCLC; BT-549 breast; DU-145 prostate; HCC-2998 colon; HCT-15 colon; M14 melanoma; MCF7 breast; NCI-H460 lung; OVCAR-8 ovarian; SK-OV-3 ovarian; SNB-19 CNS; SNB-75 CNS; SR leukemia; SW-620 colon; TK-10 renal; UACC-62 melanoma; T-47D breast.
Holding throughout (experiment): NCI-60 cell line screen, 48 h

On to `Cc1csc(NNC(N)=O)n1`, for which the TGI with A549 NSCLC, in the experiment on BT-549 breast, in the experiment on DU-145 prostate, in the experiment with HCC-2998 colon, in the experiment with HCT-15 colon and in the experiment on M14 melanoma was greater than 100 µM each time. Besides, the TGI with MCF7 breast, in the experiment on NCI-H460 lung, with OVCAR-8 ovarian, with SK-OV-3 ovarian, in the experiment on SNB-19 CNS and in the experiment with SNB-75 CNS was greater than 100 µM each time. The TGI with SR leukemia, in the experiment on SW-620 colon, in the experiment on TK-10 renal and with UACC-62 melanoma was greater than 100 µM in each case.

On to `C[C@@H]1[C@H](O)CC2=C(CC[C@@H](O)C2(C)C)[C@@]1(CO)CCc1ccoc1`, for which the TGI in the experiment on A549 NSCLC, in the experiment with BT-549 breast, in the experiment with HCC-2998 colon, with HCT-15 colon, in the experiment on M14 melanoma and in the experiment on MCF7 breast was greater than 50 µM each time. Besides, the TGI in the experiment on NCI-H460 lung, in the experiment with OVCAR-8 ovarian, with SK-OV-3 ovarian, in the experiment on SNB-19 CNS, in the experiment on SNB-75 CNS and in the experiment on SR leukemia was greater than 50 µM each time. For the same compound, the TGI with SW-620 colon, in the experiment on TK-10 renal and in the experiment on UACC-62 melanoma was greater than 50 µM in each case.

Regarding `Cc1c2n(c3ccccc13)S(=O)(=O)c1ccccc1-2`, the TGI in the experiment on A549 NSCLC, in the experiment on BT-549 breast, in the experiment with DU-145 prostate, in the experiment on HCC-2998 colon, in the experiment on HCT-15 colon and in the experiment with M14 melanoma was greater than 100 µM in each case. The TGI with MCF7 breast is greater than 100 µM; with NCI-H460 lung, greater than 100 µM; with OVCAR-8 ovarian, 60.1 µM; with SK-OV-3 ovarian it was 31.6 µM; in the experiment with SNB-19 CNS, 46.9 µM; in the experiment with SR leukemia it was greater than 100 µM. Besides, the TGI in the experiment with SW-620 colon is greater than 100 µM; in the experiment with TK-10 renal, 58.2 µM; in the experiment with UACC-62 melanoma, greater than 100 µM.

For `CC(=O)OC1OC(c2ccoc2)C[C@@]12C1CCC3O[C@]3(C)[C@]1(C)[C@H](OC(C)=O)[C@H](OC(C)=O)[C@H]2C` (stereo partly drawn), the TGI with A549 NSCLC, in the experiment on BT-549 breast, in the experiment on HCC-2998 colon, with HCT-15 colon, in the experiment with M14 melanoma and in the experiment with MCF7 breast was greater than 37.5 µM throughout. Further, the TGI with NCI-H460 lung, with OVCAR-8 ovarian, with SK-OV-3 ovarian, in the experiment with SNB-19 CNS, in the experiment with SR leukemia and in the experiment on SW-620 colon was greater than 37.5 µM in each case. Moreover, the TGI with TK-10 renal and in the experiment on UACC-62 melanoma was greater than 37.5 µM each time.

As to `CO/N=C(/C)c1cccc(Nc2nc3ccc(Cl)cc3c3[nH]c4ccccc4c23)c1`, the TGI in the experiment on A549 NSCLC worked out at 30.2 µM; in the experiment with DU-145 prostate it was 24.9 µM; in the experiment on HCT-15 colon it was 27.1 µM; in the experiment on M14 melanoma it was 20.7 µM; with MCF7 breast, 26.2 µM; in the experiment on NCI-H460 lung, 18.8 µM. For the same compound, the TGI in the experiment with OVCAR-8 ovarian was found to be 23.1 µM; in the experiment with SK-OV-3 ovarian, 49.6 µM; in the experiment on SNB-19 CNS, 35.6 µM; in the experiment with SR leukemia, 14.6 µM; in the experiment on SW-620 colon, 21.8 µM; in the experiment on T-47D breast, 7.28 µM. In the experiment with UACC-62 melanoma, this compound gave a TGI of 19.8 µM.

For the compound `COCCOC(=O)NCn1cc(-c2ccccc2)nn1`, the TGI with A549 NSCLC, in the experiment with BT-549 breast, with DU-145 prostate, with HCC-2998 colon, in the experiment on HCT-15 colon and in the experiment with M14 melanoma was greater than 100 µM in each case. The TGI in the experiment with MCF7 breast, in the experiment with NCI-H460 lung, with OVCAR-8 ovarian, in the experiment on SNB-19 CNS, in the experiment on SR leukemia and in the experiment on SW-620 colon was greater than 100 µM each time. The TGI with TK-10 renal was greater than 100 µM.

As for `O/N=C(/C(Cl)=C(Cl)Cl)C(Cl)Cl`, the TGI in the experiment on A549 NSCLC is greater than 100 µM; with BT-549 breast it was 41.4 µM; in the experiment with DU-145 prostate it was 97.4 µM; in the experiment on HCC-2998 colon it was 79.6 µM; with HCT-15 colon, 33.5 µM; in the experiment with M14 melanoma it was 40.8 µM. Also, the TGI with MCF7 breast is 60.7 µM; with NCI-H460 lung, greater than 100 µM; in the experiment on OVCAR-8 ovarian it was 66.8 µM; with SK-OV-3 ovarian, 74.7 µM; in the experiment with SNB-19 CNS, greater than 100 µM; with SNB-75 CNS, 43.7 µM. The TGI in the experiment on SR leukemia amounted to 26.7 µM; in the experiment with SW-620 colon, 38.8 µM; in the experiment on TK-10 renal it was 34.7 µM; with UACC-62 melanoma, 77.2 µM.

Regarding `O=c1[nH]c2cc([N+](=O)[O-])ccc2nc1/C(=N/Nc1ccccc1)C(O)c1ccco1` (stereo not drawn), the TGI with A549 NSCLC, with HCC-2998 colon, with HCT-15 colon, with M14 melanoma, with NCI-H460 lung and in the experiment on OVCAR-8 ovarian was greater than 100 µM in each case. Moreover, the TGI in the experiment on SNB-19 CNS, in the experiment with SNB-75 CNS, in the experiment on SR leukemia, in the experiment on SW-620 colon and in the experiment with UACC-62 melanoma was greater than 100 µM in each case.

For `COc1cc2c(oc(=O)c3c4occc4cc(OC)c23)c2cccc(OCc3ccccc3)c12`, the TGI in the experiment with A549 NSCLC, in the experiment with HCC-2998 colon, with HCT-15 colon, in the experiment with M14 melanoma, in the experiment with NCI-H460 lung and in the experiment on OVCAR-8 ovarian was greater than 100 µM throughout. Besides, the TGI in the experiment on SK-OV-3 ovarian, with SNB-19 CNS, in the experiment on SNB-75 CNS, in the experiment on SR leukemia, in the experiment on SW-620 colon and in the experiment with TK-10 renal was greater than 100 µM each time. The TGI in the experiment with UACC-62 melanoma was greater than 100 µM.

For the compound `CCOC(=O)C(C)Sc1nnc(COc2ccc(Cl)cc2)n1-c1ccccc1` (stereo not drawn), the TGI in the experiment with A549 NSCLC was greater than 100 µM; in the experiment on HCC-2998 colon it was 49 µM; in the experiment with HCT-15 colon it was 27.8 µM; in the experiment with M14 melanoma, 30.9 µM; in the experiment with NCI-H460 lung, 31.6 µM; in the experiment with OVCAR-8 ovarian, 60 µM. Moreover, the TGI in the experiment with SK-OV-3 ovarian is greater than 100 µM; in the experiment on SNB-19 CNS, 40.1 µM; in the experiment on SNB-75 CNS it was greater than 100 µM; in the experiment on SW-620 colon, 27.2 µM; in the experiment on TK-10 renal it was 69.9 µM; in the experiment with UACC-62 melanoma, 31.8 µM.
